Assay results as given in patent US20250051363A1, “Substituted Pyrazolopyridines” (Neuro3 Therapeutics, Inc., priority 2023, published 2025).

target: LRRK2 wild-type (Homo sapiens (Human), UniProt Q5S007); assay: LanthaScreen LRRK2 Biochemical Activity Assay; conditions: human recombinant LRRK2 (amino acids 970-2527) wild-type, ATP 57 μM, TR-FRET; read-out: IC50 (nM), inhibition of LRRK2 wild-type kinase activity
Method: The ability of a compound of Formula (I) to inhibit LRRK2 kinase activity is measured using a LanthaScreen™ kinase activity assay. In general, in a LanthaScreen™ kinase activity assay, kinase, fluorescein-labeled substrate, and ATP are allowed to react. Then EDTA (to stop the reaction) and terbium-labeled antibody (to detect phosphorylated product) are added. In a LanthaScreen™ kinase reaction, the antibody associates with the phosphorylated fluorescein labeled substrate resulting in an increased TR-FRET value. The TR-FRET value is a dimensionless number that is calculated as the ratio of the acceptor (fluorescein) signal to the donor (terbium) signal. The amount of antibody that is bound to the tracer is directly proportional to the amount of phosphorylated substrate present, and in this manner, kinase activity can be detected and measured by an increase in the TR-FRET value. Accordingly, in this Example, enzyme reactions are carried out in a kinase reaction buffer in the presence or absence of representative compounds of Formula (I) at various concentrations in 384-well plate at room temperature for 60 minutes. The kinase reaction buffer contains human recombinant LRRK2 protein (amino acids 970-2527, 5 nM), ATP (57 μM for LRRK2 wild-type, 134 μM for G2019S mutant protein), Fluorescein-LRRKtide substrate (0.4 mM), 50 mM Tris pH 7.5, 10 mM MgCl2, 1 mM EGTA, 0.01% Brij™-35, and 2 mM DTT. The final reaction volume for each reaction is 10 μL. The reactions are initated by adding the substrate and stopped by the addition of 10 μL of a TR-FRET dilution buffer supplemented with a kinase quench buffer (10 mM EDTA final) and Tb-anti-pLRRKtide (2 nM final). The plate is further incubated at room temperature for another 60 minutes, and the fluorescent signals are read on an EnVision® multilabel plate reader (PerkinElmer, Waltham, MA) with excitation at 340 nm and emission at 495 and 520 nm. The assay signal is determined as a ratio of FRET-specific signal measured with emission filter at 520 nm to that of the signal measured with Tb-specific emission filter at 495 nm. IC50 values for compound-mediated enzyme inhibition are calculated using appropriate programs in GraphPad Prism software by plotting the logarithm of the compound concentrations versus percent inhibition. All reagents are purchased from Thermo Fisher Scientific.

LRRK2 wild-type, sequence (Q5S007 970-2527): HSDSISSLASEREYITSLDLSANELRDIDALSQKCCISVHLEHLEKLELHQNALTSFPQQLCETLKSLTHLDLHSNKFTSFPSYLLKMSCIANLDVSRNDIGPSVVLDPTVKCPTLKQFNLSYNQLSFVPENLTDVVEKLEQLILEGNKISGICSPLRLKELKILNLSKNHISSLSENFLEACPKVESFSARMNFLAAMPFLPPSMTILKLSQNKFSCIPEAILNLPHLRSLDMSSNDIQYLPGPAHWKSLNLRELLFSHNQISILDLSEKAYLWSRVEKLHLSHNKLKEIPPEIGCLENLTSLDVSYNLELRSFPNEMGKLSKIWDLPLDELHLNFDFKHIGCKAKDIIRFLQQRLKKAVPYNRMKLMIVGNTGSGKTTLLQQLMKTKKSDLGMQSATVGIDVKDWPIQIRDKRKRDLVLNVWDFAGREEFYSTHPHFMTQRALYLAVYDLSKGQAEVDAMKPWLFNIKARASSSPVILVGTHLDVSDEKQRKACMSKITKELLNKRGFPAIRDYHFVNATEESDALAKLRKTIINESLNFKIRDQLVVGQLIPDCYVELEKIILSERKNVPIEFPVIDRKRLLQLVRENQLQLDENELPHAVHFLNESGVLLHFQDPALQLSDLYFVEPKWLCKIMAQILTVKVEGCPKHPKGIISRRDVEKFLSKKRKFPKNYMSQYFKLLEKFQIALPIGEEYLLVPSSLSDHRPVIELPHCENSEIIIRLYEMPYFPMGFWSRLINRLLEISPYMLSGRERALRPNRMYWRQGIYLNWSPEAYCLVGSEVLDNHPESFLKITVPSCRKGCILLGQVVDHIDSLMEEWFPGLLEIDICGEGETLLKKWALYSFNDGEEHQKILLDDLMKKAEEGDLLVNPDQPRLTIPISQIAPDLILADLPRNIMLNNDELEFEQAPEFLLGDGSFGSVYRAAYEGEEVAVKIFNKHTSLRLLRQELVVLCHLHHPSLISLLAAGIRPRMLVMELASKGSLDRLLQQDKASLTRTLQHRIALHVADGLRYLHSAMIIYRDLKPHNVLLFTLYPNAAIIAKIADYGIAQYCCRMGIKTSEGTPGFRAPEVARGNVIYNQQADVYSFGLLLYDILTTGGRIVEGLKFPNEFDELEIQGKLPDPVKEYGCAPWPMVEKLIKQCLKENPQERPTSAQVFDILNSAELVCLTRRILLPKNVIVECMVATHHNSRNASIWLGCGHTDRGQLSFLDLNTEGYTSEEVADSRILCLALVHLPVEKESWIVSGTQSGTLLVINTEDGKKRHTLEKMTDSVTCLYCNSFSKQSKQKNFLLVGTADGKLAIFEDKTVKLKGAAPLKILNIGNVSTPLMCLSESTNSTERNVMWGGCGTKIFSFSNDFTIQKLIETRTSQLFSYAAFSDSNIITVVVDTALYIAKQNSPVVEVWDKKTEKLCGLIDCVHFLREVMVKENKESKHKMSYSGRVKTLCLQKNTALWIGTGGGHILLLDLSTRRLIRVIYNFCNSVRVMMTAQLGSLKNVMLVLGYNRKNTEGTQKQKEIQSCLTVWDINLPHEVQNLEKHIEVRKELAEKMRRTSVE

IC50, 11 to 100 nM:
O=C(Nc1ccn2ncc(-c3cccc(C4CCCNC4)n3)c2c1)c1ccccn1 (stereo not shown) [Example 72, N-(3-(6-(piperidin-3-yl)pyridin-2-yl)pyrazolo[1,5-a]pyridin-5-yl)picolinamide]
O=C(COc1ccccn1)Nc1ccn2ncc(-c3cccc(C4CCCNC4)n3)c2c1 (stereo not shown) [Example 73, N-(3-(6-(piperidin-3-yl)pyridin-2-yl)pyrazolo[1,5-a]pyridin-5-yl)-2-(pyridin-2-yloxy)acetamide]
N#CCCC(=O)Nc1ccn2ncc(-c3cccc(C4CCCNC4)n3)c2c1 (stereo not shown) [Example 74, 3-cyano-N-(3-(6-(piperidin-3-yl)pyridin-2-yl)pyrazolo[1,5-a]pyridin-5-yl)propanamide]
N#CCCCC(=O)Nc1ccn2ncc(-c3cccc(C4CCCNC4)n3)c2c1 (stereo not shown) [Example 75, 4-cyano-N-(3-(6-(piperidin-3-yl)pyridin-2-yl)pyrazolo[1,5-a]pyridin-5-yl)butanamide]
O=C(COc1ccncc1)Nc1ccn2ncc(-c3cccc(C4CCCNC4)n3)c2c1 (stereo not shown) [Example 76, N-(3-(6-(piperidin-3-yl)pyridin-2-yl)pyrazolo[1,5-a]pyridin-5-yl)-2-(pyridin-4-yloxy)acetamide]
N#CCC(=O)Nc1ccn2ncc(-c3cccc(C4CCCNC4)n3)c2c1 (stereo not shown) [Example 77, 2-cyano-N-(3-(6-(piperidin-3-yl)pyridin-2-yl)pyrazolo[1,5-a]pyridin-5-yl)acetamide]
O=C(Cc1cccnc1)Nc1ccn2ncc(-c3cccc(C4CCCNC4)n3)c2c1 (stereo not shown) [Example 78, N-(3-(6-(piperidin-3-yl)pyridin-2-yl)pyrazolo[1,5-a]pyridin-5-yl)-2-(pyridin-3-yl)acetamide]
O=C(CNc1ccncc1)Nc1ccn2ncc(-c3cccc(C4CCCNC4)n3)c2c1 (stereo not shown) [Example 79, N-(3-(6-(piperidin-3-yl)pyridin-2-yl)pyrazolo[1,5-a]pyridin-5-yl)-2-(pyridin-4-ylamino)acetamide]
O=C(CNc1cccnc1)Nc1ccn2ncc(-c3cccc(C4CCCNC4)n3)c2c1 (stereo not shown) [Example 80, N-(3-(6-(piperidin-3-yl)pyridin-2-yl)pyrazolo[1,5-a]pyridin-5-yl)-2-(pyridin-3-ylamino)acetamide]
O=C(Cc1ccccn1)Nc1ccn2ncc(-c3cccc(C4CCCNC4)n3)c2c1 (stereo not shown) [Example 81, N-(3-(6-(piperidin-3-yl)pyridin-2-yl)pyrazolo[1,5-a]pyridin-5-yl)-2-(pyridin-2-yl)acetamide]
